From US5808144A, “Benzene derivatives” (Teijin Limited, priority 1995, dated 1998) come the findings set out here.

In general, inhibition refers to the change of the read-out against control, counted positive when it falls. What is called IC50 is the concentration needed to halve the response being measured.

One assay has as its system human IgE antibody. As to the kind of experiment: Human IgE antibody production-inhibiting activity in vitro (lymphocytes + IL-4 + anti-CD40 Ab + IL-10, sandwich ELISA). The note with it: Lymphocyte; for inhibition at 0.1 µM: 100 nM (0.1 μM), vs. no compound; for IC50: IgE antibody production. In kind it is cell-based. The procedure:
(§1) Measurement of human IgE antibody production-inhibiting activity in vitro
(§2) In accordance with the following method established with reference to The Journal of Immunology (J. Immunol.), Vol. 146, 1836 to 1842 (1991) and the Journal of Immunology (J. Immunol.), Vol. 147, 8 to 13 (1991), the concentrations of IgE and […], when the compounds of the present invention shown in Table 12 were employed, were measured.
(§3) Peripheral venous blood gathered from a healthy person was subjected to a density-gradient centrifugation to isolate lymphocytes therefrom. The isolated lymphocytes were washed and suspended in a culture medium liquid (RPMI-1640 (made by Gibco Co.)+10% heat-inactivated FCS (made of Whittaker Co.)+100 μg/ml streptomycin+100 U/ml penicillin G+2 mM L-glutamine). The lymphocytes in the suspension were cultured for one week in the presence or non-presence of the above-mentioned compounds and in the presence of an interleukin 4 (IL-4, made by GENZYME CO.) (0.1 mg/ml), an anti-CD 40 antibodies (anti CD 40 Ab, made by BIOSOURCE CO., clone B-B20) (0.2 mg/ml), and an interleukin 10 (IL-10, made by GENZYME CO.) (0.2 mg/ml). To this culture system, the same culture medium liquid as mentioned above was supplemented, and then the culture was further carried out for one week. Thereafter, the concentrations of IgE antibodies and IgG antibodies in the supernatant of the culture mixture were measured by a sandwich ELISA method. In the measurement by the ELISA method, the concentration of the IgE antibodies was determined by using a primary antibody consisting of a rabbit anti-human IgE (ε) antibody (made by IGN Co.) and a secondary antibody consisting of biotin-anti-human IgE monoclonal antibody (G7-26, made by Phar Mingen Co.), and the concentration of IgG antibodies was determined by using a primary antibody consisting of anti-human IgG monoclonal antibody (G18-145, made by Phar Mingen Co.) and a secondary antibody consisting of biotin-donkey anti-human IgG antibody (H+L), made by Jackson Co.). Also, in the measurement of IgE and IgG antibody concentrations, as an enzyme, an Avidin-Biotin-HRP (Avidin-Biotin-Horse Radish Peroxidase; ABC kit, made by Vector Lab.) was used and as a substrate, TMB (3,3', 5,5'-tetramethylbenzidine) Microwell Peroxidase Substrate System (made by Kirkegaad & Perry Laboratories Inc.) was used.
(§4) On the basis of each antibody concentration when the compound of the present invention was not present, each antibody production-inhibition (%) in a concentration of the compound to be tested of 0.1 μM was calculated. Further, with respect to some of the compounds tested, the antibody production-inhibitions (%) of the tested compounds were measured in various concentrations thereof, and IC 50 values thereof were calculated. (Refer to Uejima et al., American Academy of Allergy & Immunology, Proceeding of 1995 Annual Meeting, Program No. 818).
(In an ELISA, binding on a coated surface is turned into a signal by an enzyme label.)

The next assay relates to human IgG antibody. As to the kind of experiment: Human IgG antibody production-inhibiting activity in vitro (lymphocytes + IL-4 + anti-CD40 Ab + IL-10, sandwich ELISA). In kind it is cell-based. As to conditions: Lymphocyte; for inhibition at 0.1 µM: 100 nM (0.1 μM), vs. no compound; for IC50: IgG antibody production. The procedure:
as §1, §2, §3, §4

The test system of the next assay is anti-TNP IgE. The assay is described as follows: IgE antibody production-inhibiting performance on TNP-sensitive mice: serum anti-TNP IgE (ELISA). The note with it: serum day 11, vehicle 433 ± 118. In kind it is in vivo, mouse. The protocol:
(§5) Measurement of IgE antibody production-inhibiting performance on TNP-sensitive mice
(§6) TNP-KLH (2 μg/head) and Alum (1 mg/head) were dosed into the abdominal cavities of 8-week-old male mice to sensitize the mice.
(§7) Compound No. 14 was suspended in a concentration of 1.0 mg/ml, 3.0 mg/ml or […] in an aqueous 5% gum arabi solution, and each suspension was perorally dosed to three groups of mice for medication, to which each medicine was dosed at a dosage of 10 ml/kg, (namely, 10 mg/kg, 30 mg/kg or 100 mg/kg), once a day continuously for 10 days from the sensitized day. For a vehicle mouse group, the above-mentioned aqueous gum arali solution was dosed in the same amount as mentioned above in the same manner as mentioned above.
(§8) On the day after the final dosing day (the eleventh day), blood was extracted from the heart of the mouse, and a TNP specific antibody value of a blood serum obtained from the extracted blood was measured in accordance with ELISA method.

The subject of the next assay is anti-TNP IgG. The assay is described as follows: TNP-sensitive mice: serum anti-TNP IgG (ELISA). As to conditions: serum day 11, vehicle 4390 ± 2630. The assay is classed as in vivo, mouse. The protocol:
as §5, §6, §7, §8

In another assay the test system is anti-TNP IgM. The assay is described as follows: TNP-sensitive mice: serum anti-TNP IgM (ELISA). As to conditions: serum day 11, vehicle 110 ± 9. The assay is classed as in vivo, mouse. The procedure:
as §5, §6, §7, §8

The mark [1] stands for this setting: 10 mg/kg p.o. once a day for 10 days.
[2] abbreviates: 100 mg/kg p.o. once a day for 10 days, ** p < 0.01 vs. vehicle.
The mark [3] stands for this setting: 30 mg/kg p.o. once a day for 10 days.

With `O=C(Cc1ccc(Oc2ccc(OC3CCCC3)cc2)cc1)Nc1ccccc1C(=O)O` [compound 12, 2-(4-(4-cyclopentyloxyphenoxy)phenylacetamido)benzoic acid], in the assay on human IgE antibody, the inhibition at 0.1 µM was 100% and the IC50 worked out at 44 nM. Besides, in the assay with human IgG antibody, the inhibition at 0.1 µM worked out at 95.8% and the IC50 was > 100 nM.

For `CCC(CC)Oc1ccc(Oc2ccc(CC(=O)Nc3ccccc3C(=O)O)cc2)cc1` [compound 20, 2-(4-(4-(3-pentyloxy)phenoxy)phenylacetamido)benzoic acid], in the assay with human IgE antibody, the inhibition at 0.1 µM came out at 100% and the IC50 was 35 nM. In the assay on human IgG antibody, the inhibition at 0.1 µM was 52.6% and the half-inhibitory concentration (IC50) was > 100 nM.

`CC(C)Oc1ccc(Oc2ccc(CC(=O)Nc3ccccc3C(=O)O)cc2)cc1` [compound 18, 2-(4-(4-isopropyloxyphenoxy)phenylacetamido)benzoic acid]: the inhibition at 0.1 µM in the assay with human IgE antibody was 19.5%; in the assay on human IgG antibody, -1.7%.

Regarding `O=C(Nc1ccccc1C(=O)O)c1ccc(Oc2ccc(O)cc2)cc1` [compound 30, 2-(4-(4-hydroxyphenoxy)benzamido)benzoic acid], the inhibition at 0.1 µM in the assay on human IgE antibody is 25.7%; in the assay on human IgG antibody, -31.7%.

As for `O=C(Cc1ccc(Oc2ccc(OCc3ccccc3)cc2)cc1)Nc1ccccc1C(=O)O` [Compound No. 4, 2-(4-(4-benzyloxyphenoxy)phenylacetamido)benzoic acid], in the assay with human IgE antibody, the inhibition at 0.1 µM worked out at 100% and the IC50 was found to be 28 nM. Also, in the assay on human IgG antibody, the inhibition at 0.1 µM amounted to 100% and the IC50 is 200 nM.

Consider `O=C(Nc1ccccc1C(=O)O)c1ccc(Oc2ccc(OC3CCCCCCC3)cc2)cc1` [compound 22, 2-(4-(4-cyclooctyloxyphenoxy)benzamido)benzoic acid], for which the inhibition at 0.1 µM in the assay with human IgE antibody is 51%; in the assay with human IgG antibody, -33.2%.

In the case of `O=C(Cc1ccc(Oc2ccc(OC3CCCCCCC3)cc2)cc1)Nc1ccccc1C(=O)O` [Compound No. 14, 2-(4-(4-cyclooctyloxyphenoxy)phenylacetamido)benzoic acid], the inhibition at 0.1 µM in the assay on human IgE antibody was determined as 100%; with human IgG antibody, 93.8%. The IC50 in the assay on human IgE antibody is 6 nM; in the assay with human IgG antibody, 12 nM. Further, the “anti-TNP IgE” value with anti-TNP IgE (setting [1]) was 127 ± 72 ng/mL; with anti-TNP IgE (30 mg/kg p.o. once a day for 10 days, ** p < 0.01 vs. vehicle), 52 ± 30 ng/mL; in the assay on anti-TNP IgE (setting [2]), 0.2 ± 0.4 ng/mL. The “anti-TNP IgG” value in the assay with anti-TNP IgG (setting [1]) amounted to 2980 ± 2310 ng/mL; with anti-TNP IgG (setting [3]) it was 2500 ± 1700 ng/mL; in the assay on anti-TNP IgG (setting [2]), 16 ± 18 ng/mL. The entries for the “anti-TNP IgM” value in the assay on anti-TNP IgM (setting [1]) and in the assay with anti-TNP IgM (setting [2]) were 79 ± 40 µg/mL and 20 ± 5.0 µg/mL, respectively. The “anti-TNP IgM (μg/ml)” value in the assay with anti-TNP IgM (setting [3]) is listed as 73 ± +26 μg/ml.

In the case of `O=C(Cc1ccc(Oc2ccc(OC3CCCCC3)cc2)cc1)Nc1ccccc1C(=O)O` [Compound No. 8, 2-(4-(4-cyclohexyloxyphenoxy)phenylacetamido)benzoic acid], in the assay on human IgE antibody, the inhibition at 0.1 µM was 95.5% and the IC50 was found to be 17 nM. In the assay with human IgG antibody, the inhibition at 0.1 µM worked out at 40.6% and the concentration for half-maximal inhibition (IC50) is 50 nM.

For the compound `O=C(Cc1ccc(Oc2ccc(OC3CCCCCCCCCCC3)cc2)cc1)Nc1ccccc1C(=O)O` [compound 16, 2-(4-(4-cyclododecanyloxyphenoxy)phenylacetamido)benzoic acid], in the assay on human IgE antibody, the inhibition at 0.1 µM came to 100% and the IC50 was 22 nM. In the assay with human IgG antibody, the inhibition at 0.1 µM came to 95.8% and the half-maximal inhibitory concentration (IC50) amounted to 46 nM.
